From ChEMBL document CHEMBL5316381, “Discovery of [1,2,3]Triazolo[4,5-c]quinoline Derivatives as a New Class of Ataxia-Telangiectasia Mutated Kinase Inhibitors” (ACS Med Chem Lett, 2023)
Blank lines part the entries; values can stand above or below the molecule they belong to. The source made the active and inactive calls. No cut-off for these calls is given here.

Legend:
[1] = target: T1, Serine-protein kinase ATM (Homo sapiens, UniProt Q13315); experiment: Inhibition of ATM (unknown origin) using GST-cMyc-p53 as substrate incubated for 30 mins in presence of Mg/ATP mix by HTRF-based analysis
[2] = tested on: HCT-116; experiment: Anticancer activity against human HCT-116 cells assessed as reduction in cell viability incubated for 5 days by MTT assay; type: functional, cell-based; settings: HCT-116, 120 h
[3] = tested on: SW-620; experiment: Induction of apoptosis in human SW620 cells assessed as viable cells at 1 uM measured after 72 hrs by Annexin V-FITC staining based flow cytometric analysis (reference value: 87.36%); type: functional; settings: read-out: Activity
[4] = tested on: SW-620; experiment: Induction of apoptosis in human SW620 cells assessed as early apoptotic cells at 1 uM measured after 72 hrs by Annexin V-FITC staining based flow cytometric analysis (reference value: 1.06%); type: functional
[5] = target: T1, Serine-protein kinase ATM; experiment: Inhibition of ATM in human SW620 cells assessed as increase in gamma H2AX foci at 1 uM incubated for 24 hrs by confocal microscopic analysis; type: cell-based
[6] = tested on: SW-620; experiment: Anticancer activity against human SW620 cells assessed as reduction in cell viability incubated for 5 days by MTT assay; type: functional, cell-based; settings: SW-620, 120 h
[7] = tested on: SW-620; experiment: Induction of apoptosis in human SW620 cells assessed as late apoptotic cells at 1 uM measured after 72 hrs by Annexin V-FITC staining based flow cytometric analysis (reference value: 5.75%); type: functional
[8] = tested on: SW-620; experiment: Cell cycle arrest in human SW620 cells assessed as accumulation of cells at G2/M phase at 1 uM incubated for 24 hrs by PI staining based flow cytometric analysis; type: functional
[9] = tested on: SW-620; experiment: Induction of apoptosis in human SW620 cells assessed as necrotic cells at 1 uM measured after 72 hrs by Annexin V-FITC staining based flow cytometric analysis (reference value: 5.83%); type: functional
[10] = target: T1, Serine-protein kinase ATM; experiment: Inhibition of ATM phosphorylation in human SW620 cells with IR-induced DNA damage assessed as fold change in phosphorylated ATM protein level at 83 nM in the presence of 3 Gy irradiation by Western blot analysis relative to control; type: cell-based
[11] = target: T1, Serine-protein kinase ATM; experiment: Inhibition of ATM phosphorylation in human SW620 cells with IR-induced DNA damage assessed as fold change in phosphorylated ATM protein level at 250 nM in the presence of 3 Gy irradiation by Western blot analysis relative to control; type: cell-based
[12] = tested on: SW-620; experiment: Radiosensitizing activity against human SW620 cells assessed as reduction in colony formation at 9 nM incubated after 14 days in the presence of 1.5 Gy irradiation by crystal violet staining based analysis; type: functional, cell-based; settings: time 14.0 day
[13] = target: Serine/threonine-protein kinase Chk2 (Homo sapiens) (UniProt O96017); experiment: Inhibition of Chk2 phosphorylation in human SW620 cells with IR-induced DNA damage assessed as fold change in phosphorylated Chk2 protein level at 250 nM in the presence of 3 Gy irradiation by Western blot analysis relative to control; type: cell-based
[14] = target: T1, Serine-protein kinase ATM; experiment: Inhibition of ATM phosphorylation in human SW620 cells with IR-induced DNA damage assessed as fold change in phosphorylated ATM protein level at 27 nM in the presence of 3 Gy irradiation by Western blot analysis relative to control; type: cell-based
[15] = target: Serine/threonine-protein kinase Chk2 (Homo sapiens) (UniProt O96017); experiment: Inhibition of CPT-11 induced Chk2 phosphorylation in human SW620 cells assessed as fold change in phosphorylated chk2 protein level at 1 nM by SDS-PAGE based Western blot analysis relative to control; type: cell-based
[16] = target: Serine/threonine-protein kinase Chk2 (Homo sapiens) (UniProt O96017); experiment: Inhibition of Chk2 phosphorylation in human SW620 cells with IR-induced DNA damage assessed as fold change in phosphorylated Chk2 protein level at 3 nM in the presence of 1.5 Gy irradiation by Western blot analysis relative to control; type: cell-based
[17] = target: Serine/threonine-protein kinase Chk2 (Homo sapiens) (UniProt O96017); experiment: Inhibition of Chk2 phosphorylation in human SW620 cells with IR-induced DNA damage assessed as fold change in phosphorylated Chk2 protein level at 27 nM in the presence of 1.5 Gy irradiation by Western blot analysis relative to control; type: cell-based
[18] = target: T1, Serine-protein kinase ATM; experiment: Inhibition of ATM phosphorylation in human SW620 cells with IR-induced DNA damage assessed as fold change in phosphorylated ATM protein level at 9 nM in the presence of 3 Gy irradiation by Western blot analysis relative to control; type: cell-based
[19] = target: Serine/threonine-protein kinase Chk2 (Homo sapiens) (UniProt O96017); experiment: Inhibition of CPT-11 induced Chk2 phosphorylation in human SW620 cells assessed as fold change in phosphorylated chk2 protein level at 3 nM by SDS-PAGE based Western blot analysis relative to control; type: cell-based
[20] = target: T1, Serine-protein kinase ATM; experiment: Inhibition of ATM phosphorylation in human SW620 cells with IR-induced DNA damage assessed as fold change in phosphorylated ATM protein level at 3 nM in the presence of 3 Gy irradiation by Western blot analysis relative to control; type: cell-based
[21] = tested on: SW-620; experiment: Radiosensitizing activity against human SW620 cells assessed as reduction in colony formation at 9 nM incubated after 14 days in the presence of 3 Gy irradiation by crystal violet staining based analysis; type: functional, cell-based; settings: time 14.0 day
[22] = target: Serine/threonine-protein kinase Chk2 (Homo sapiens) (UniProt O96017); experiment: Inhibition of Chk2 phosphorylation in human SW620 cells with IR-induced DNA damage assessed as fold change in phosphorylated Chk2 protein level at 27 nM in the presence of 3 Gy irradiation by Western blot analysis relative to control; type: cell-based
[23] = target: Serine/threonine-protein kinase Chk2 (Homo sapiens) (UniProt O96017); experiment: Inhibition of Chk2 phosphorylation in human SW620 cells with IR-induced DNA damage assessed as fold change in phosphorylated Chk2 protein level at 9 nM in the presence of 3 Gy irradiation by Western blot analysis relative to control; type: cell-based
[24] = tested on: SW-620; experiment: Radiosensitizing activity against human SW620 cells assessed as reduction in colony formation at 27 nM incubated after 14 days in the presence of 1.5 Gy irradiation by crystal violet staining based analysis; type: functional, cell-based; settings: time 14.0 day
[25] = target: Serine/threonine-protein kinase Chk2 (Homo sapiens) (UniProt O96017); experiment: Inhibition of CPT-11 induced Chk2 phosphorylation in human SW620 cells assessed as fold change in phosphorylated chk2 protein level at 10 nM by SDS-PAGE based Western blot analysis relative to control; type: cell-based
[26] = target: Serine/threonine-protein kinase Chk2 (Homo sapiens) (UniProt O96017); experiment: Inhibition of Chk2 phosphorylation in human SW620 cells with IR-induced DNA damage assessed as fold change in phosphorylated Chk2 protein level at 3 nM in the presence of 3 Gy irradiation by Western blot analysis relative to control; type: cell-based
[27] = target: Serine/threonine-protein kinase Chk2 (Homo sapiens) (UniProt O96017); experiment: Inhibition of Chk2 phosphorylation in human SW620 cells with IR-induced DNA damage assessed as fold change in phosphorylated Chk2 protein level at 9 nM in the presence of 1.5 Gy irradiation by Western blot analysis relative to control; type: cell-based
[28] = target: Serine/threonine-protein kinase Chk2 (Homo sapiens) (UniProt O96017); experiment: Inhibition of Chk2 phosphorylation in human SW620 cells with IR-induced DNA damage assessed as fold change in phosphorylated Chk2 protein level at 250 nM in the presence of 1.5 Gy irradiation by Western blot analysis relative to control; type: cell-based
[29] = target: Serine/threonine-protein kinase Chk2 (Homo sapiens) (UniProt O96017); experiment: Inhibition of CPT-11 induced Chk2 phosphorylation in human SW620 cells by SDS-PAGE based Westernblot analysis; type: cell-based
[30] = tested on: SW-620; experiment: Antiproliferative activity against human SW620 cells assessed as reduction in colony formation at 9 nM measured after 14 days by crystal violet staining based microscopic analysis; type: functional, cell-based; settings: time 14.0 day
[31] = target: Serine/threonine-protein kinase Chk2 (Homo sapiens) (UniProt O96017); experiment: Inhibition of CPT-11 induced Chk2 phosphorylation in human SW620 cells assessed as fold change in phosphorylated chk2 protein level at 30 nM by SDS-PAGE based Western blot analysis relative to control; type: cell-based
[32] = tested on: SW-620; experiment: Radiosensitizing activity against human SW620 cells assessed as reduction in colony formation at 27 nM incubated after 14 days in the presence of 3 Gy irradiation by crystal violet staining based analysis; type: functional, cell-based; settings: time 14.0 day
[33] = target: Serine/threonine-protein kinase Chk2 (Homo sapiens) (UniProt O96017); experiment: Inhibition of Chk2 phosphorylation in human SW620 cells with IR-induced DNA damage assessed as fold change in phosphorylated Chk2 protein level at 83 nM in the presence of 1.5 Gy irradiation by Western blot analysis relative to control; type: cell-based
[34] = target: Serine/threonine-protein kinase Chk2 (Homo sapiens) (UniProt O96017); experiment: Inhibition of Chk2 phosphorylation in human SW620 cells with IR-induced DNA damage assessed as fold change in phosphorylated Chk2 protein level at 83 nM in the presence of 3 Gy irradiation by Western blot analysis relative to control; type: cell-based
[35] = tested on: SW-620; experiment: Antiproliferative activity against human SW620 cells assessed as reduction in colony formation at 27 nM measured after 14 days by crystal violet staining based microscopic analysis; type: functional, cell-based; settings: time 14.0 day

Sequence of Serine/threonine-protein kinase Chk2 (Homo sapiens) (O96017 whole entry): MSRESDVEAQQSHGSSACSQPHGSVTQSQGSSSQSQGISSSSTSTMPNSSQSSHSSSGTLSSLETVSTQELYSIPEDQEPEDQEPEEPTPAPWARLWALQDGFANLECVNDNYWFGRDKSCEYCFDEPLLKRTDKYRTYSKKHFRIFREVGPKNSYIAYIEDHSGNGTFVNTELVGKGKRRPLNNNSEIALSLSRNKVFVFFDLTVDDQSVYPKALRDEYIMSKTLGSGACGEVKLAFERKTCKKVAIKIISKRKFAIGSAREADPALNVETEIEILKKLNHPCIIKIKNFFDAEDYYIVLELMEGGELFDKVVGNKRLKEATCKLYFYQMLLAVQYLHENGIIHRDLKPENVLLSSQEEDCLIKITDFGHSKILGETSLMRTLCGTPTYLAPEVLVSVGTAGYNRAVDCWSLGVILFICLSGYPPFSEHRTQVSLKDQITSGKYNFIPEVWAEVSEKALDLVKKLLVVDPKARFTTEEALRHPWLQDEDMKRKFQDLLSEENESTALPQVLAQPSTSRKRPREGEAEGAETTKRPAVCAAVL
T1 sequence (Q13315 whole entry): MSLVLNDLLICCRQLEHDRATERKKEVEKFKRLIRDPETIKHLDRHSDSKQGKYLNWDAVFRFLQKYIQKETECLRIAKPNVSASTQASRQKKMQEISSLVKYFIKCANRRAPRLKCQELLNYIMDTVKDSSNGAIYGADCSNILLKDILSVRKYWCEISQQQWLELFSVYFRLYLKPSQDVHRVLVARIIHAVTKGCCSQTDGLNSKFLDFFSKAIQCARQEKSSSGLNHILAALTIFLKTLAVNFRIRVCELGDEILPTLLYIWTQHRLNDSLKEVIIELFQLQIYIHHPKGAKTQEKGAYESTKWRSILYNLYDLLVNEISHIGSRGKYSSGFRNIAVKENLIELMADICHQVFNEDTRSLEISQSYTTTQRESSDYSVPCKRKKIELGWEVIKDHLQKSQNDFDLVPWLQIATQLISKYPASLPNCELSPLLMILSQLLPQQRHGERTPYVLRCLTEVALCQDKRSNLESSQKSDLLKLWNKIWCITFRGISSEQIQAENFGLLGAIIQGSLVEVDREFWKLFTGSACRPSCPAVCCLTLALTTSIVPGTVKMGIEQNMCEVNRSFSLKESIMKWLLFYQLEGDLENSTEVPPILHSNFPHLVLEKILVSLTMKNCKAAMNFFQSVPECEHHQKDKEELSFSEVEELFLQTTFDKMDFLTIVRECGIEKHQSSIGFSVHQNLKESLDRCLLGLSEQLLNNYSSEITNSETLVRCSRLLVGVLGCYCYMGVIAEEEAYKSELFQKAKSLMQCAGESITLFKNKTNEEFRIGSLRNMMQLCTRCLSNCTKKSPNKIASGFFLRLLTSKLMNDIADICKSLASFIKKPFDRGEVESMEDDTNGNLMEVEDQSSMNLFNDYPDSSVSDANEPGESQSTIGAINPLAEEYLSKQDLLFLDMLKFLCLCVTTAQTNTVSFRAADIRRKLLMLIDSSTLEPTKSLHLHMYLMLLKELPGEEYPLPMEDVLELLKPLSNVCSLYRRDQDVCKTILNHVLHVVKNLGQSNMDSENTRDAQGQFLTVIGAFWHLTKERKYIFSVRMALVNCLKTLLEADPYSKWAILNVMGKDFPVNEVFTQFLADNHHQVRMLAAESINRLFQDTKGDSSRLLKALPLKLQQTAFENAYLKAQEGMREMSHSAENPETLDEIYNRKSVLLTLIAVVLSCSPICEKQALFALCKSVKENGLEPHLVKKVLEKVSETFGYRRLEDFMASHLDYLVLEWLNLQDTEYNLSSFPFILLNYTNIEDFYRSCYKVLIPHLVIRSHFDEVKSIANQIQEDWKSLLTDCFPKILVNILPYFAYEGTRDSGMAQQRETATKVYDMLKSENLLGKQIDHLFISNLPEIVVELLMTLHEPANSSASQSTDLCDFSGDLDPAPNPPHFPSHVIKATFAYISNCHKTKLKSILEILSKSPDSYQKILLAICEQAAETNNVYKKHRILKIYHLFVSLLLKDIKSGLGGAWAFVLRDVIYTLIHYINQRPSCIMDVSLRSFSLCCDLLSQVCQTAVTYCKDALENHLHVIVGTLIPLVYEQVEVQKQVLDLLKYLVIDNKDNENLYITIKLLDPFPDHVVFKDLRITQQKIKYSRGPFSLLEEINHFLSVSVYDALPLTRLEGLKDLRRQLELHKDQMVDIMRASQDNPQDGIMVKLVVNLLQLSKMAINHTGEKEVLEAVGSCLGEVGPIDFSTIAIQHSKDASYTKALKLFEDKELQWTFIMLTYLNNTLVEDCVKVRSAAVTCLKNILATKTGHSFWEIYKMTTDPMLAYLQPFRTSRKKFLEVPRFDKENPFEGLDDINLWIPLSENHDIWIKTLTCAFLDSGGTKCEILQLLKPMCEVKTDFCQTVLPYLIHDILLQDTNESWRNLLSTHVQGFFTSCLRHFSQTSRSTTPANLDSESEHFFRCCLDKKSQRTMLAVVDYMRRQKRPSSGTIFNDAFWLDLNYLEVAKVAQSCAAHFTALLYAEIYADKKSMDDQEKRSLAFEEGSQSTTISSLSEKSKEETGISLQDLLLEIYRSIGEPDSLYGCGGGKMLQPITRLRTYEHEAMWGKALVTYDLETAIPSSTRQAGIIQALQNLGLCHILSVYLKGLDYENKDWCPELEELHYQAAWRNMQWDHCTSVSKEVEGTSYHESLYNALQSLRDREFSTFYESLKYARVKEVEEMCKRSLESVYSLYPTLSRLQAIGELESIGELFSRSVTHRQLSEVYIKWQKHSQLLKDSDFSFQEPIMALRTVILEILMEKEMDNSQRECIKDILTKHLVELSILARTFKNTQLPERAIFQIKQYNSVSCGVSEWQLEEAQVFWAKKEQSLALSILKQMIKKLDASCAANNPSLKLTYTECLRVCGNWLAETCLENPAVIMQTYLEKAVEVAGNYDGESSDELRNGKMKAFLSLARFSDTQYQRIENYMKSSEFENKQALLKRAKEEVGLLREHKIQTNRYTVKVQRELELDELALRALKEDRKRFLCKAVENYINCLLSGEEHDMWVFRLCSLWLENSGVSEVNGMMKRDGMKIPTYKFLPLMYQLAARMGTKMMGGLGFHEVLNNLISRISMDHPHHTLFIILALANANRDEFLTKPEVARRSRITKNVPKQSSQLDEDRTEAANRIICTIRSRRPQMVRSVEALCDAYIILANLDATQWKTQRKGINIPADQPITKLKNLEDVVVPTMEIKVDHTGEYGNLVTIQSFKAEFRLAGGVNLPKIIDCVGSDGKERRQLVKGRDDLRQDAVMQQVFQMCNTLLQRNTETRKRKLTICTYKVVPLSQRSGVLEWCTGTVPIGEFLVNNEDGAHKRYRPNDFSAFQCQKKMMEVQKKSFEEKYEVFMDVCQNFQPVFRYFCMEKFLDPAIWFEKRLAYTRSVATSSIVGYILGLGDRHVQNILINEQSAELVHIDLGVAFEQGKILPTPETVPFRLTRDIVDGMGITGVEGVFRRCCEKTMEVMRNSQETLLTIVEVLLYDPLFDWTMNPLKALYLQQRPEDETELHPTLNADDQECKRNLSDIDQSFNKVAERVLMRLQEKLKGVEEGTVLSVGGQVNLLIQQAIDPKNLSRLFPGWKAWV

- IC50 [1]: 5 nM
SMILES: COc1cccc([C@@H](C)n2nnc3cnc4ccc(-c5ccc(N)nc5)cc4c32)c1

- IC50 [1]: 9 nM
SMILES: C[C@H](c1ccccc1)n1nnc2cnc3ccc(-c4cccnc4)cc3c21

- IC50 [1]: 167 nM
SMILES: C[C@H](c1ccccc1)n1nnc2cnc3ccc(-c4ccc(C#N)nc4)cc3c21

- IC50 [1]: 15 nM
SMILES: C[C@H](c1ccccc1)n1nnc2cnc3ccc(-c4cnc(N)nc4)cc3c21

- IC50 [1]: 4 nM
SMILES: C[C@H](c1ccc(F)cc1)n1nnc2cnc3ccc(-c4ccc(N)nc4)cc3c21

- IC50 [1]: 15 nM
SMILES: C[C@H](c1ccccc1)n1nnc2cnc3ccc(-c4ccc(N)cc4)cc3c21

- IC50 [1]: 166 nM
SMILES: CNCCCOc1ccc(-c2ccc3ncc4nnn([C@H](C)c5ccccc5)c4c3c2)cn1

- IC50 [1]: 9 nM
SMILES: CC[C@H](c1ccccc1)n1nnc2cnc3ccc(-c4ccc(N)nc4)cc3c21

- IC50 [1]: 22 nM
SMILES: C[C@H](c1ccccc1)n1nnc2cnc3ccc(-c4ccnc(N)c4)cc3c21

- IC50 [1]: 4 nM
SMILES: C[C@H](c1cccc(F)c1)n1nnc2cnc3ccc(-c4ccc(N)nc4)cc3c21

- IC50 [1]: 8 nM
SMILES: Nc1ccc(-c2ccc3ncc4nnn(Cc5ccccc5)c4c3c2)cn1

- IC50 [1]: 45 nM
SMILES: C[C@@H](c1ccccc1)n1nnc2cnc3ccc(-c4ccc(N)nc4)cc3c21

- IC50 [2]: 910 nM
- inhibition [5]: Active
- IC50 [6]: 140 nM
SMILES: CCc1c2c(nc3ccc(OC(=O)N4CCC(N5CCCCC5)CC4)cc13)-c1cc3c(c(=O)n1C2)COC(=O)[C@]3(O)CC [IRINOTECAN]
- viability at 1 µM [3]: 67.3%
- Activity [4]: 4.61%
- Activity [7]: 21.89%
- Activity [8]: Active
- Activity [9]: 6.2%

- IC50 [1]: 243 nM
SMILES: Cn1nnc2cnc3ccc(-c4ccc(N)nc4)cc3c21

- IC50 [1]: 19 nM
SMILES: C[C@H](c1ccccc1)n1nnc2cnc3ccc(-c4ccc(OCCN(C)C)nc4)cc3c21

- IC50 [1]: 31 nM
SMILES: C[C@H](c1ccccc1)n1nnc2cnc3ccc(-c4ccc(Cl)nc4)cc3c21

- fold change (FC) [15]: 2.5
- fold change (FC) [19]: 1.9
- fold change (FC) [25]: 1.6
- inhibition [29]: Dose-Dependent Effect
- fold change (FC) [31]: 0.56
SMILES: CC(C)n1c(=O)n(C)c2cnc3cc(F)c(-c4ccc(OCCCN5CCCCC5)nc4)cc3c21
- fold change (FC) [10]: 0.8
- fold change (FC) [11]: 0.61
- Activity [12]: Active
- fold change (FC) [13]: 0.25
- fold change (FC) [14]: 1
- fold change (FC) [16]: 0.92
- fold change (FC) [17]: 1.2
- fold change (FC) [18]: 1.34
- fold change (FC) [20]: 1.36
- Activity [21]: Active
- fold change (FC) [22]: 0.6
- fold change (FC) [23]: 1.8
- Activity [24]: Active
- fold change (FC) [26]: 4.2
- fold change (FC) [27]: 0.92
- fold change (FC) [28]: 0.58
- Activity [30]: inactive
- Activity [32]: Active
- fold change (FC) [33]: 1
- fold change (FC) [34]: 0.35
- Activity [35]: inactive

- IC50 [1]: 52 nM
SMILES: C[C@H](c1ccccc1)n1nnc2cnc3ccc(-c4ccc(O)cc4)cc3c21

- IC50 [1]: 13 nM
SMILES: CC(=O)Nc1ccc(-c2ccc3ncc4nnn([C@H](C)c5ccccc5)c4c3c2)cn1
